Laboratory results: patent US20250066372A1, “HETEROCYCLIC COMPOUNDS, COMPOSITIONS THEREOF, AND METHODS OF TREATMENT THEREWITH” (BeiGene, Ltd., priority 2022, published 2025)
pIC50: −log10 of the molar value.

molecular target: CDK4/Cyclin D1 (Homo sapiens (Human), UniProt P11802); assay: CDK4/Cyclin D1 biochemical assay (TR-FRET); settings: 1 mM ATP, 0.15 μM Rb (Ser780)-biotin substrate
Sequence (P11802 whole entry): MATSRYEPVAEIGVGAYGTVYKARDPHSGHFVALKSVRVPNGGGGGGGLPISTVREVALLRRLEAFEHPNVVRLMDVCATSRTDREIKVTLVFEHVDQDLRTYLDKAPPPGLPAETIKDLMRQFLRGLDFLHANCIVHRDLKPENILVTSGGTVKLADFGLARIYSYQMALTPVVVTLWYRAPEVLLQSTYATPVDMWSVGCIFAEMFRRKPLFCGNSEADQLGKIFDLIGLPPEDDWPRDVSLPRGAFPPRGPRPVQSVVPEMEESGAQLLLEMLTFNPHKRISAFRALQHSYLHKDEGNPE
Sequence (P24385 whole entry partner): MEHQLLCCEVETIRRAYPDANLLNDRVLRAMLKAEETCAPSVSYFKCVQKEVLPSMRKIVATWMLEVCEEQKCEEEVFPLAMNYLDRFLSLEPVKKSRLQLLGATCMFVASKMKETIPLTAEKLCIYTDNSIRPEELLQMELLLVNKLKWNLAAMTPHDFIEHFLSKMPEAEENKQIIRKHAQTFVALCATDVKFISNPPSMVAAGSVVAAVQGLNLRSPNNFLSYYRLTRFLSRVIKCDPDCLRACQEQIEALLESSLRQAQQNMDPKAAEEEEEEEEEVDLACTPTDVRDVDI

pIC50	SMILES
7.17	CN(C)C(=O)c1cc2cnc(N[C@@H]3CCOC[C@H]3O)nc2n1C1CCCC1 [Example 1, 7-cyclopentyl-2-(((3S,4R)-3-hydroxytetrahydro-2H-pyran-4-yl)amino)-N,N-dimethyl-7H-pyrrolo[2,3-d]pyrimidine-6-carboxamide]
8.06	CC(=O)c1c(C)c2cnc(N[C@@H]3CCOC[C@H]3O)nc2n(C2CCCC2)c1=O [Example 2 in WO2020212865, reference compound]
6.44	Cc1ccc(-n2c(C(=O)N(C)C)cc3cnc(N[C@@H]4CCOC[C@H]4O)nc32)cc1 [Example 2, 2-(((3S,4R)-3-hydroxytetrahydro-2H-pyran-4-yl)amino)-N,N-dimethyl-7-(p-tolyl)-7H-pyrrolo[2,3-d]pyrimidine-6-carboxamide]
7.14	CN(C)Cc1ccc(-n2c(C(=O)N(C)C)cc3cnc(N[C@@H]4CCOC[C@H]4O)nc32)cc1 [Example 3, 7-(4-((dimethylamino)methyl)phenyl)-2-(((3S,4R)-3-hydroxytetrahydro-2H-pyran-4-yl)amino)-N,N-dimethyl-7H-pyrrolo[2,3-d]pyrimidine-6-carboxamide]
8.01	CN(C)Cc1ccc(-n2c(C(=O)N(C)C)cc3cnc(N[C@@H]4CCOC[C@H]4O)nc32)cc1C1CC1 [Example 4, 7-(3-cyclopropyl-4-((dimethylamino)methyl)phenyl)-2-(((3S,4R)-3-hydroxytetrahydro-2H-pyran-4-yl)amino)-N,N-dimethyl-7H-pyrrolo[2,3-d]pyrimidine-6-carboxamide]
7.29	CN(C)Cc1ccc(-n2c(C(=O)N(C)C)cc3cnc(N[C@@H]4CCOC[C@H]4O)nc32)cc1F [Example 5, 7-(4-((dimethylamino)methyl)-3-fluorophenyl)-2-(((3S,4R)-3-hydroxytetrahydro-2H-pyran-4-yl)amino)-N,N-dimethyl-7H-pyrrolo[2,3-d]pyrimidine-6-carboxamide]
7.66	CN(C)Cc1ccc(-n2c(C(=O)N(C)C)cc3cnc(N[C@@H]4CCOC[C@H]4O)nc32)cc1Cl [Example 6, 7-(3-chloro-4-((dimethylamino)methyl)phenyl)-2-(((3S,4R)-3-hydroxytetrahydro-2H-pyran-4-yl)amino)-N,N-dimethyl-7H-pyrrolo[2,3-d]pyrimidine-6-carboxamide]
8.23	CN(C)Cc1ccc(-n2c(C(=O)N(C)C)cc3cnc(N[C@@H]4CCOC[C@H]4O)nc32)cc1C(F)(F)F [Example 7, 7-(4-((dimethylamino)methyl)-3-(trifluoromethyl)phenyl)-2-(((3S,4R)-3-hydroxytetrahydro-2H-pyran-4-yl)amino)-N,N-dimethyl-7H-pyrrolo[2,3-d]pyrimidine-6-carboxamide]
6.84	CN1CCc2cc(-n3c(C(=O)N(C)C)cc4cnc(N[C@@H]5CCOC[C@H]5O)nc43)ccc2C1 [Example 8, 2-(((3S,4R)-3-hydroxytetrahydro-2H-pyran-4-yl)amino)-N,N-dimethyl-7-(2-methyl-1,2,3,4-tetrahydroisoquinolin-6-yl)-7H-pyrrolo[2,3-d]pyrimidine-6-carboxamide]
7.92	CN(C)C(=O)c1cc2cnc(N[C@@H]3CCOC[C@H]3O)nc2n1-c1ccc2c(c1)CCCC2N(C)C (stereo partly drawn) [Example 9, 7-(5-(dimethylamino)-5,6,7,8-tetrahydronaphthalen-2-yl)-2-(((3S,4R)-3-hydroxytetrahydro-2H-pyran-4-yl)amino)-N,N-dimethyl-7H-pyrrolo[2,3-d]pyrimidine-6-carboxamide]
7.89	CN(C)C(=O)c1cc2cnc(N[C@@H]3CCOC[C@H]3O)nc2n1-c1ccc2c(c1)C1(CCC2N(C)C)CC1 (stereo partly drawn) [Example 10, 7-(4′-(dimethylamino)-3′,4′-dihydro-2′H-spiro[cyclopropane-1,1′-naphthalen]-7′-yl)-2-(((3S,4R)-3-hydroxytetrahydro-2H-pyran-4-yl)amino)-N,N-dimethyl-7H-pyrrolo[2,3-d]pyrimidine-6-carboxamide]
8.68	CN(C)C(=O)c1cc2cnc(N[C@@H]3CCOC[C@H]3O)nc2n1-c1ccc2c(c1)C(F)(F)CCC2N(C)C (stereo partly drawn) [Example 11, 7-(5-(dimethylamino)-8,8-difluoro-5,6,7,8-tetrahydronaphthalen-2-yl)-2-(((3S,4R)-3-hydroxytetrahydro-2H-pyran-4-yl)amino)-N,N-dimethyl-7H-pyrrolo[2,3-d]pyrimidine-6-carboxamide]
7.38	CN(C)C(=O)c1cc2cnc(N[C@@H]3CCOC[C@H]3O)nc2n1-c1ccc2c(c1)CCC2N(C)C (stereo partly drawn) [Example 12, 7-(1-(dimethylamino)-2,3-dihydro-1H-inden-5-yl)-2-(((3S,4R)-3-hydroxytetrahydro-2H-pyran-4-yl)amino)-N,N-dimethyl-7H-pyrrolo[2,3-d]pyrimidine-6-carboxamide]
7.42	CN(C)C(=O)c1cc2cnc(N[C@@H]3CCOC[C@H]3O)nc2n1-c1ccc2c(c1)C1(CC1)CC2N(C)C (stereo partly drawn) [Example 13, 7-(3′-(dimethylamino)-2′,3′-dihydrospiro[cyclopropane-1,1′-inden]-6′-yl)-2-(((3S,4R)-3-hydroxytetrahydro-2H-pyran-4-yl)amino)-N,N-dimethyl-7H-pyrrolo[2,3-d]pyrimidine-6-carboxamide]
8.30	CC(C)n1c(C(C)(C)O)nc2c(F)cc(-c3nc(N[C@@H]4CCOC[C@H]4O)ncc3Cl)cc21 [Example A94 in WO2019207463, reference compound]
